The numbers were not newly measured in patent US20240398763A1, “ORAL DOSAGE FORM CONTAINING ONCOLOGICAL ACTIVE INGREDIENT” (OWP Pharmaceuticals, Inc., priority 2023, published 2024), which cites them from elsewhere.

Converted amounts (≈) assume the structure as drawn. Structures can show the parent of a compound that is named as a salt. Where two headings read alike, the source gives them in different places.

Setting [1] is: in water / aqueous media, in words.

Turning to `CCCCCOC(=O)Nc1nc(=O)n([C@@H]2O[C@H](C)C(O)C2O)cc1F` (stereo partly drawn) [capecitabine, pentyl ester [1-(5-deoxy-β-d-ribofuranosyl)-5-fluoro-1,2-dihydro-2-oxo-4-pyrimidinyl]-carbamic acid, reference compound], the Solubility (at 25° C.) was 6 mg/mL at 25 °C.
For `Nc1ncn([C@@H]2O[C@H](CO)[C@@H](O)[C@H]2O)c(=O)n1` [azacitidine], under setting [1], the Solubility result is “water soluble”.
Take `CC1=C(/C=C/C(C)=C/C=C/C(C)=C/C(=O)O)C(C)(C)CCC1` [tretinoin]: the Solubility result under setting [1] was “insoluble in water”.
For the compound `CN1CC[C@@H](NC(=O)Nc2ccc(C#N)cc2)C[C@@H]1c1nc2ccccc2[nH]1` [glasdegib], where the note is “condition not given”, the Solubility is listed as 1.7 mg/mL (≈ 4.54 mM).
Regarding `C[C@@H](Oc1cc(-c2cnn(C3CCNCC3)c2)cnc1N)c1c(Cl)ccc(F)c1Cl` [crizotinib], the Solubility entry (pH 1.6) is “greater than 10 mg/mL”.
Take `CCOc1cc2ncc(C#N)c(Nc3ccc(OCc4ccccn4)c(Cl)c3)c2cc1NC(=O)/C=C/CN(C)C` [neratinib]: the Solubility result is, setting by setting: (approximate pH 5.0 and above) “(0.08 mg/mL or less)”; (pH 1.2) 1.2 (32.90 mg/mL) and.
As for `Clc1ccc(C(c2ccccc2Cl)C(Cl)Cl)cc1` (stereo not shown) [mitotane], under setting [1], the Solubility result was “insoluble in water”.
Regarding `Cc1nc(NC(=O)N2CCC[C@H]2C(N)=O)sc1-c1ccnc(C(C)(C)C(F)(F)F)c1` [alpelisib], the Solubility entry under setting [1] is on record as “insoluble in water”.
In the case of `CC(C)(C#N)c1cc(Cn2cncn2)cc(C(C)(C)C#N)c1` [anastrozole, α,α,α′,α′-tetramethyl-5-(1H-1,2,4-triazol-1-ylmethyl)-1,3-benzenediacetonitrile, reference compound], the Solubility result (at 25° C.) was “solubility (0.5 mg/mL”.
In the case of `C=CC(=O)N1CC[C@H](n2nc(C#Cc3cc(OC)cc(OC)c3)c3c(N)ncnc32)C1` [futibatinib], the Solubility result under setting [1] is on record as “insoluble in water”.
For the compound `CCN(CC)CCNC(=O)c1c(C)[nH]c(/C=C2\C(=O)Nc3ccc(F)cc32)c1C` [sunitinib malate], the Solubility result (aqueous media over the range pH 1.2 to pH 6.8) was “is in excess of 25 mg/mL”.
Regarding `CCN1CCN(Cc2ccc(Nc3ncc(F)c(-c4cc(F)c5nc(C)n(C(C)C)c5c4)n3)nc2)CC1` [abemaciclib], the Solubility result under setting [1] was “insoluble in water”.
In the case of `CO[C@]1(C(=O)N[C@@H](C)c2ccc(-n3cc(F)cn3)nc2)CC[C@H](c2nc(C)cc(Nc3cc(C)[nH]n3)n2)CC1` [pralsetinib], the Solubility (aqueous media, pH 1.99) is recorded as 0.880 mg/mL to.
Consider `O=C(Nc1ccc(OC(F)(F)Cl)cc1)c1cnc(N2CC[C@@H](O)C2)c(-c2ccn[nH]2)c1` [asciminib], for which the Solubility result under setting [1] is recorded as “insoluble in water”.
Regarding `C=CC(=O)Nc1cc(Nc2nccc(-c3cn(C)c4ccccc34)n2)c(OC)cc1N(C)CCN(C)C` [osimertinib], the Solubility result under setting [1] is listed as “insoluble in water”.
For the compound `CONC(=O)Nc1ccc(-c2sc3c(c2CN(C)C)c(=O)n(-c2ccc(OC)nn2)c(=O)n3Cc2c(F)cccc2F)cc1` [relugolix], the Solubility (in water at 25° C.) was 0.04 mg per mL in.
Consider `N[C@@H](Cc1cc(I)c(Oc2cc(I)c(O)c(I)c2)c(I)c1)C(=O)O` [levothyroxine sodium], for which, under setting [1], the Solubility result was “insoluble in water”.
As for `Nc1nc(F)nc2c1ncn2[C@@H]1O[C@H](COP(=O)(O)O)[C@@H](O)[C@@H]1O` [fludarabine phosphate], where the note is “condition not given”, the Solubility is 3 mg/mL.
In the case of `CN(C)C(=O)c1cc2cnc(Nc3ccc(N4CCNCC4)cn3)nc2n1C1CCCC1` [ribociclib], under setting [1], the Solubility entry is “insoluble in water”.
`CS(=O)(=O)c1ccc(C(=O)Nc2ccc(Cl)c(-c3ccccn3)c2)c(Cl)c1` [vismodegib]: the Solubility was 0.99 mg/mL at pH 1 (pH 1) and 0.1 μg/mL at pH 7 and (pH 7).
`CO[C@H]1C[C@@H]2CC[C@@H](C)[C@@](O)(O2)C(=O)C(=O)N2CCCC[C@H]2C(=O)O[C@H]([C@H](C)C[C@@H]2CC[C@@H](OCCO)[C@H](OC)C2)CC(=O)[C@H](C)/C=C(\C)[C@@H](O)[C@@H](OC)C(=O)[C@H](C)C[C@H](C)/C=C/C=C/C=C/1C` [everolimus]: the Solubility result under setting [1] is on record as “insoluble in water”.
`Cc1nccn1CC1CCc2c(c3ccccc3n2C)C1=O` (stereo not shown) [ondansetron hydrochloride]: the Solubility result under setting [1] was “water soluble”.
Regarding `O=C(O)CCCc1ccc(N(CCCl)CCCl)cc1` [chlorambucil], the Solubility entry under setting [1] is on record as “insoluble in water”.
`CC(C)C(=O)Nc1ccc([N+](=O)[O-])c(C(F)(F)F)c1` [flutamide]: the Solubility result under setting [1] is on record as “insoluble in water”.
Regarding `O=C(/C=C\n1cnc(-c2cc(C(F)(F)F)cc(C(F)(F)F)c2)n1)NNc1cnccn1` [selinexor], the Solubility entry under setting [1] is reported as “insoluble in water”.
As to `CO[C@@H]1[C@H](N(C)C(=O)c2ccccc2)C[C@H]2O[C@]1(C)n1c3ccccc3c3c4c(c5c6ccccc6n2c5c31)C(=O)NC4` [midostaurin], the Solubility entry under setting [1] was “insoluble in water”.
